Reference: article PMC4389225, “Triaminopyrimidine is a fast-killing and long-acting antimalarial clinical candidate” (Nature Communications, 2015)
Read-outs that look alike come from different tables or passages of the source.

Assays:
[1] = Plasma protein binding, rat
[2] = Dog plasma PK, IV and oral; assay type: in vivo; conditions: male, Beagle; for clearance / AUC(0-inf) / AUC(0-t) / Cmax / MRT / half-life / Vd / bioavailability: dog; for half-life: read-out: t½ (converted); for Vd: read-out: Vss
Description: Pharmacokinetic studies to estimate the blood levels of compounds in dogs. PK in fasted, male Beagle dogs (n = 2 per dose) was studied after a single dose administered by intravenous infusion for 15 min (IV) or by an oral route (PO). Solution formulation containing 10% ethanol, 30% PEG 400, 60% saline was used for IV administration and a suspension in 0.5% w/v HPMC with 0.1% v/v Tween 80 was used for oral administration.
48 hours after an oral dose of 5 mg/kg. Blood samples were centrifuged and plasma samples were analyzed by LC/MS/MS. Dog PK profiles are shown in supplementary Fig. 11 and PK parameters are described in supplementary Table 9.

[3] = Plasma protein binding, dog
[4] = Observed blood CL, mouse
[5] = in vitro; assay type: in vitro ADME; conditions: pH 7.4, Michaelis-Menten
Description: Supplementary Note 3: Metabolism of 12 in the presence of mouse (MLM) and human […]
The kinetics of metabolism of compound 12 to form the N-demethylated metabolite, 9, was studied by incubating 12 with HLM or MLM. Compound 12 was incubated with 1 mg/mL of pooled liver microsomes at four different compound concentrations (5, 10, 20 and 30 μM) in 166 µL of buffer containing 100 mM phosphate buffer, pH 7.4 and 1 mM NADPH, at 37°C.
Aliquots of 20 µL of incubation mix were quenched with 4 volumes of ice-cold acetonitrile at different time points, i.e., 0, 5, 10, 20 and 30 min in a 96 well microtitre plate. The quenched plate was centrifuged at 4000 rpm for 15 min and 20 µL of the supernatant was diluted to 200 µL with 50% acetonitrile in water. Depletion of 12 and formation of 9 was analysed by LC-MS/MS. Concentrations of 12 and 9 were determined using calibration curves prepared with synthetic standards. Kinetics of metabolite formation or parent depletion is shown in supplementary Fig. 5, Fig. 6 and kinetic parameters are described in supplementary Table […]
The rate and extent of metabolite formation in the presence of mouse liver microsomes was […]
than in the presence of HLM.

[6] = tested on: Dd2-6R F2 C5; experiment: SYBR green growth assay, Dd2-6R F2 C5; conditions: Plasmodium falciparum
Description: The drug was then washed off and the parasites were allowed to recover in normal growth media.

[7] = tested on: Dd2 PI4K Cpd 1; experiment: [3H]-hypoxanthine incorporation assay, Dd2 PI4K Cpd 1 resistant; assay type: cell-based; conditions: Plasmodium falciparum
Description: (§1) Supplementary Table 3: Compound 9 and 12 retain their activity against Pf strains harbouring mutations to novel antimalarial agents in clinical development. Compound 9 and 12 were tested for their antiplasmodial activity against a panel of Pf strains known to harbour mutations conferring resistance to novel agents under clinical development. Parasite growth inhibition is measured using the [3H]-hypoxanthine incorporation assay. IC50s are established for each strain (n ≥2) and compared to the IC50 of Dd2 (standard pan-resistant […]

[8] = tested on: Dd2; experiment: SYBR green growth assay, Dd2 (parental); assay type: cell-based, P. falciparum; conditions: Plasmodium falciparum, DD2, Dd2 parental; mean ± SD, Supplementary Table 13
Description: To eliminate overlapping mode of action with known targets, cross-resistance testing of representative TAPs against drug-resistant lines with well-characterized mutations in Pf dihydroorotate dehydrogenase, Pf heat-shock protein 90, Pf chloroquine resistance transporter[25] or Pf cytochrome b reduction site[26] was performed. […] Assays were carried out in 384-well format with three technical replicates within an assay day and biological replicates carried out on three different assay days to assign a final EC50.
A representative TAP (compound 6) was tested for its activity against a panel of P. falciparum strains known to harbour mutations conferring resistance to antimalarial agents under development. Artesunate and amodiaquine were included as additional control […]
Values are the means ± standard deviation derived from three independent assays performed

[9] = Blood-plasma ratio, mouse; assay type: in vitro ADME
[10] = tested on: PfATP4 Cpd 3; experiment: [3H]-hypoxanthine incorporation assay, PfATP4 Cpd 3 resistant; assay type: cell-based; conditions: Plasmodium falciparum
Description: as §1

[11] = Acute anaesthetised guinea pig CVS model, compound 2; assay type: in vivo
Description: Protein binding (human free)
Guinea Pig Study: Anaesthetised guinea pigs (n=2) were treated with compound 2 at 5 mg/kg followed by 15 mg/kg (AstraZeneca, Alderley Park, UK) using methodology based on that used to assess compound 12 at Biotrial, France. Haemodynamic and electrocardiography […]
achieved with compound 2 in an early mouse model once exposures reached approximately 9 μM Cmax (total). Consequently, compound 2 was classified as having no therapeutic window preclinically in this model. […]

[12] = plasma, iv, 2.1 mg/kg, IV 2.1 mg kg-1, Dog 1
[13] = plasma, iv, 2.1 mg/kg, IV 2.1 mg kg-1, Dog 2
[14] = plasma, iv, 2.1 mg/kg, IV 2.1 mg kg-1, Mean
[15] = plasma, po, 5.1 mg/kg, Oral 5.1 mg kg-1, Dog 1
[16] = plasma, po, 5.1 mg/kg, Oral 5.1 mg kg-1, Dog 2
[17] = plasma, po, 5.1 mg/kg, Oral 5.1 mg kg-1, Mean

For `Cc1nc(Nc2ncc(N3CCN(C)[C@H](C)C3)c(Nc3cc(C)n(C)n3)n2)cc(C2CC2)c1F` [compound 12, (R)-N2-(4-cyclopropyl-5-fluoro-6-methylpyridin-2-yl)-N4-(1,5-dimethyl-1H-pyrazol-3-yl)-5-(3,4-dimethylpiperazin-1-yl)pyrimidine-2,4-diamine], the fraction unbound [1] was 0.04, the clearance ([2]; blood, iv, 2.1 mg kg-1, Dog, read-out: Observed blood CL) was 19 mL/min/kg and the AUC(0-inf) [2, 12] was 2.72 µM·h. For the same compound, the AUC(0-t) [2, 12] was 2.16 µM·h, the Cmax [2, 12] was 641 nM and the MRT [2, 12] was 15.1 h. It also gave a half-life [2, 12] of 11 h, an AUC(0-inf) [2, 13] of 3.47 µM·h and an AUC(0-t) [2, 13] of 2.68 µM·h. It also gave a Cmax [2, 13] of 515 nM, an MRT [2, 13] of 15.9 h and a half-life [2, 13] of 11 h. The AUC(0-inf) [2, 14] was 3.1 µM·h, the AUC(0-t) [2, 14] was 2.42 µM·h and the Cmax [2, 14] was 578 nM. The MRT [2, 14] was 15.5 h, the half-life [2, 14] was 11 h and the clearance ([2]; plasma, iv, 2.1 mg/kg, plasma, IV 2.1 mg kg-1, Dog 1, read-out: CL) was 27.5 mL/min/kg. For the same compound, the Vd ([2]; plasma, iv, 2.1 mg/kg, plasma, IV 2.1 mg kg-1, Dog 1) was 24.9 L/kg, the clearance ([2]; plasma, iv, 2.1 mg/kg, plasma, IV 2.1 mg kg-1, Dog 2, read-out: CL) was 21.3 mL/min/kg and the Vd ([2]; plasma, iv, 2.1 mg/kg, plasma, IV 2.1 mg kg-1, Dog 2) was 20.4 L/kg. For the same compound, the clearance ([2]; plasma, iv, 2.1 mg/kg, plasma, IV 2.1 mg kg-1, Mean, read-out: CL) was 24.4 mL/min/kg, the Vd ([2]; plasma, iv, 2.1 mg/kg, plasma, IV 2.1 mg kg-1, Mean) was 22.7 L/kg and the AUC(0-inf) [2, 15] was 5.87 µM·h. For the same compound, the AUC(0-t) [2, 15] was 5.27 µM·h, the Cmax [2, 15] was 300 nM and the bioavailability [2, 15] was 88.1%. The half-life [2, 15] was 15.2 h, the AUC(0-inf) [2, 16] was 8.28 µM·h and the AUC(0-t) [2, 16] was 7.48 µM·h. The Cmax [2, 16] was 603 nM, the bioavailability [2, 16] was 96.4% and the half-life [2, 16] was 17 h. It also gave an AUC(0-inf) [2, 17] of 7.08 µM·h, an AUC(0-t) [2, 17] of 6.38 µM·h and a Cmax [2, 17] of 452 nM. It also gave a bioavailability [2, 17] of 92.3%, a half-life [2, 17] of 16.1 h and a Tmax ([2]; plasma, Oral 5.1 mg kg-1, Dog 1) of 2 h. For the same compound, the “Plasma protein binding (% free)” value ([3]; Dog) was 3.8 % free, the fraction unbound ([3]; dog, plasma) was 0.038 and the “Observed blood CL” value ([4]; Mouse) was 32-35 % LBF. For the same compound, the clearance ([4]; mouse, blood) was 48 to 53 mL/min/kg, the Km ([5]; human, HLM) was 22.5 µM and the Km ([5]; mouse, MLM) was 78.3 µM. For the same compound, the IC50 [6] was 70.1 nM, the IC50 [7] was 7.1 nM and the IC50 [8] was 16.1 ± 1 nM. The “B:P ratio” value [9] was 1.2 and the IC50 [10] was 10 nM.
With `Cc1cc(Nc2ncc(N3CCN(C)CC3)c(N3CCCC3)n2)ccn1` [compound 2] the “A - Plasma Cmax Total” value ([11]; 5 mg/kg i.v.) was 4530 nM, the “Safety Margin (A / B)” value ([11]; 5 mg/kg i.v.) was “None” and the “Summary of clinical signs and effects” value ([11]; 5 mg/kg i.v.) was “Haemodynamic Effects”. The “A - Plasma Cmax Total” value ([11]; 15 mg/kg i.v.) was 20420 nM, the “Safety Margin (A / B)” value ([11]; 15 mg/kg i.v.) was “None” and the “Summary of clinical signs and effects” value ([11]; 15 mg/kg i.v.) was “Haemodynamic & ECG Effects”.
